Data on one compound can be found in publication PMC8567874, “Metronomic delivery of orally available pemetrexed-incorporated colloidal dispersions for boosting tumor-specific immunity” (Drug Delivery, 2021).

Like-named read-outs stand apart in the source and are kept apart here.

Series [1] relates to CT26.CL25 tumor-bearing mice. Nature of the series: In vivo immunostimulatory effects in CT26.CL25 tumor-bearing mice (flow cytometry, ELISPOT, slide staining). The note with it: 3 weeks, PMX 150 mg/kg IV every 3 weeks, PMX/DL-CD oral daily 20 mg/kg PMX. How it is done:
To investigate in vivo immunostimulatory effects of oral metronomic PMX, BALB/c mice were inoculated with 1 × 10^6 of CT26.CL25 cells per mouse. The mice were randomly divided into three groups (10 mice per group) once the tumor volume had reached 50–70 mm^3: control (untreated), PMX-IV (150 mg/kg PMX administered IV every 3 weeks), and PMX/DL-CD (oral PMX/DL(1:1)-CD administered daily, equivalent to 20 mg/kg PMX). The mice were sacrificed 3 weeks after treatment and the tumors were isolated. The tumor tissues were converted into single cells by passing them through a 40-µm filter after digestion with collagenase A (0.2% w/v), DNAse (30 U/mL), and dispase (10 U/mL) in MACS (gentleMACS Octo Dissociator with Heaters; Miltenyi Biotec, Bergisch Gladbach, Germany) at 37 °C for 45 min. Some cells were collected for tumor-infiltrating lymphocyte analyses and centrifuged using histopaque-1077 for 20 min at 450 g to isolate the lymphocytes. The isolated cells were then stained with fluorescence-conjugated antibodies and incubated. The cells were washed and suspended in FACS buffer and then collected into FACS tubes. The cells were then analyzed using flow cytometry (FACS Aria II) and the data were analyzed using FlowJo software (FlowJo LLC, Ashland, OR, USA). Cell populations were acquired by gating, as follows: tumor-infiltrating lymphocytes (DAPI^−/CD45^+), helper T cells (DAPI^−/CD45^+/CD3^+/CD4^+), PD-L1-expressing tumor cells (DAPI^−/CD45^−/PD-L1^+), proliferating cytotoxic T cells (DAPI^−/CD45^+/CD3^+/CD8^+/ki67^+), and IFN-γ-secreting T cells (DAPI^−/CD45^+/CD3^+/CD8^+/IFN-γ^+).
Lymphocytes were isolated from the tumors using the procedure described previously; 2 × 10^5 tumor lymphocytes per well, along with β-gal (5 µg/mL), were incubated on pre-coated 96-well plates in CTL test medium for 24 h at 37 °C with 9% CO2. […] After the procedure, the plates were scanned and the spots were counted in the ELISpot counter (Immunospot® S6 ULTIMATE analyzer; Cellular Technology Ltd.). […]
(Flow cytometry measures light scatter and fluorescence of single cells or particles in a stream.)

For another series, the system named is CT26.CL25 cells. Nature of the series: Immunofluorescence (confocal) analysis of ICD induction. The class given is cell-based. The note with it: CT26.CL25, 300 µM, 48 h, confocal microscopy. How it is done: CT26.CL25 cells, cultured in coverslips at 1 × 10^4 cell density, were treated with 300 µM DL, 300 µM PMX, or PMX/DL (equivalent to 300 µM PMX) for 48 h. The PMX dose was converted from the Cmax of the pharmacokinetic profile in patients treated with 500 mg/m^2 PMX-IV (Li et al., [2007]). The cells were then washed with PBS, fixed in 10% formalin solution, and incubated with a cell membrane marker, Texas Red-X conjugated wheat germ agglutinin solution (5 µg/mL), for 10 min at room temperature. The cells were washed and permeabilized with 1% Triton-X solution for 40 min at room temperature. The cells were then incubated overnight with primary anti-CRT (1:200) or anti-HMGB-1 (1:200) antibodies at 4 °C after washing with PBS. On the following day, the cells were washed and incubated with secondary anti-rabbit Alexa Fluor 488 (1:400; Invitrogen; Thermo Fisher Scientific) for 1 h at room temperature and then stained with DAPI. Confocal laser scanning microscopy (TCS SP8; Leica Microsystems, Wetzlar, Germany) was used to obtain images.

Series [2] in a line: In vivo pharmacokinetic study in rats. Further details: species or system Sprague–Dawley (SD) rats. How it is done: The separated plasma samples were kept at −80 °C before analysis and the drug concentration in each plasma sample was determined by LC-MS. […] Agilent Technologies, Santa Clara, CA, USA), conditioned with 500 µL of methanol, followed by 500 µL of deionized water. After loading the standards or samples into the cartridges, the unadsorbed particles were washed out with 500 µL of deionized water and methanol. […] PMX and IS were ionized using electrospray ionization (ESI) source in positive ion mode under a capillary voltage of 3.5 kV, drying gas flow rate of 3.1 L/min, and drying gas temperature of 300 °C. […] Pharmacokinetic parameters were estimated using a non-compartmental model in WinNonlin® software (ver. 5.3; Pharsight Corp., Mountain View, CA, USA). All data were expressed as means ± standard deviations (SDs), or standard errors of the mean (SEMs). Statistical analysis was performed by one-way analysis of variance (ANOVA) followed by Tukey’s multiple comparison test for unpaired data with more than three means. In all analyses, p < .05 was taken to indicate statistical significance.

For another series, the system named is LLC cell-bearing mice. Nature of the series: In vivo antitumor efficacy in LLC cell-bearing mice. Further details: species or system C57BL/6 mice. Here is the method: The in vivo dose-dependent antitumor effects of oral PMX/DL(1:1)-CD compared to PMX-IV were evaluated by inoculating LLC cells at a density of 1 × 10^6 cells/100 μL PBS (pH 7.4) into the right dorsal flanks of 6-week-old female C57BL/6 mice. The oral doses for PMX/DL(1:1)-CD with antitumor activities without toxic effects were determined based on our previous study (Maharjan et al., [2019]). […] The body weights and tumor volumes of all mice were measured every 3 days. Tumor volume was then calculated as a^2 × b × 0.52, where a and b were the width and length of the tumor, respectively. The mice were sacrificed and the tumor masses were measured 21 days after drug administration.

The test system of series [3] is CT26.CL25 tumor-bearing mice. The format is in vivo. The note with it: 27 days after drug treatment, IV 150 mg/kg PMX.
Protocol: To investigate the antitumor efficacy of oral PMX/DL(1:1)-CD and IV PMX given in combination with intraperitoneal aPD-1, 1 × 10^6 of CT26.CL25 cells in 100 µL of PBS (pH 7.4) were subcutaneously inoculated into each BALB/c mouse. When the average tumor volume reached 50–70 mm^3, mice were randomly divided into seven groups (10 mice per group): control (untreated), PMX-IV (150) (IV administration of 150 mg/kg PMX once every 3 weeks), aPD-1 (10) (intraperitoneal administration of 10 mg/kg aPD-1 once every 3 days), PMX-Oral (20) (once-daily oral administration equivalent to 20 mg/kg PMX), PMX/DL-CD (20) [once-daily oral administration PMX/DL(1:1)-CD equivalent to 20 mg/kg PMX], PMX-IV (150) + aPD-1 (10) (combination of IV administration of 150 mg/kg PMX once every 3 weeks, and intraperitoneal administration of 10 mg/kg aPD-1 once every 3 days), and PMX/DL-CD (20) + aPD-1 (10) (a combination of once-daily oral administration of PMX/DL(1:1)-CD equivalent to 20 mg/kg PMX and intraperitoneal administration of 10 mg/kg aPD-1 once every 3 days). During treatments, body weights and tumor volumes of mice in all seven groups were monitored once every 3 days, for 27 days. Tumor volumes in each mouse were calculated based on the following formula: 0.52 × a^2 × b, where a and b were the tumor widths and lengths, respectively.
The mark [4] stands for this setting: Sprague-Dawley, rat, plasma, IV, 10 mg/kg PMX.
Setting [5] is: Sprague-Dawley, rat, plasma, oral, 20 mg/kg PMX.

Regarding `Nc1nc2[nH]cc(CCc3ccc(C(=O)N[C@@H](CCC(=O)O)C(=O)O)cc3)c2c(=O)[nH]1` [PMX, Pemetrexed], in series [1], the “CD4+ T-cell population in tumor compared to control” value is on record as “substantially increased”; the “CD45+ cell infiltration in tumor compared to control” value is reported as “slightly increased”; the “PD-L1 expression in tumor cells, times greater compared to the control group” value is given as “two”. In addition, in the series with CT26.CL25 cells, the “CRT-fluorescence compared to controls and DL-treated cells” value is “more intense”; the “HMGB-1-release compared to controls and DL-treated cells” value is recorded as “higher”. This compound also had a Cmax in series [2] (IV, 10 mg/kg PMX) of 32300 ± 1220 ng/mL. This compound came in with a bioavailability in series [2] (IV, 10 mg/kg PMX (reference)) of 100%. In addition, in series [2] (setting [4]), the AUC(0-inf) worked out at 25300 ± 3560 ng·h/mL, the area under the curve AUC(0-t) came to 25100 ± 3560 ng·h/mL and the half-life was 57.2 ± 2.58 min. Further, in series [2] (setting [5]), the area under the curve AUC(0-inf) came to 8960 ± 89 ng·h/mL, the AUC(0-t) worked out at 3930 ± 380 ng·h/mL, the Tmax amounted to 30 min and the half-life is 786 ± 109 min. Also, the bioavailability in series [2] (Sprague-Dawley, rat, plasma, oral, 20 mg/kg PMX, read-out: Bioavailability) amounted to 7.8 ± 0.755%. Also, in series [2] (Sprague-Dawley, rat, plasma, oral, 20 mg/kg PMX, read-out: Cmax), the Cmax is 579 ± 73 ng/mL. The “Antitumor efficacy compared to the control group” value with LLC cell-bearing mice (IV 150 mg/kg PMX once every 3 weeks) is listed as 60.9%. In addition, in the series on LLC cell-bearing mice (repeated administration for 3 weeks, all dose groups), the “Body weights compared to the control group” value is “did not change significantly”. In series [3], the “Mice alive (survival)” value is 50%.

For orientation: Cmax means the highest concentration seen after dosing. Broadly, the bioavailability is the share of a dose that reaches the circulation, judged against a reference dose that is usually intravenous. The AUC(0-inf) is total exposure, with the tail of the curve extrapolated. Read a high AUC(0-inf) as more exposure. For orientation: AUC(0-t) means exposure summed from dosing to a finite time, without extrapolation to infinity. Higher therefore signals high exposure. In general, half-life refers to how long it takes for the measured level to halve. The low end stands for fast loss, the high end for slow loss. Broadly, the Tmax is the time from dosing to the highest level.
